Literature values, collected in publication PMC9177108 (The Oncologist, 2022).
Where two headings read alike, the source gives them in different places.

System: patients with advanced solid tumors
Settings: cited from earlier work

CNC(=O)c1cccc2cc(Oc3ccnc4cc(OCC5(N)CC5)c(OC)cc34)ccc12 [Lucitanib]
tolerability of continuous dosing (continuous 15 mg daily dose, arterial hypertension): unsustainable beyond three cycles
partial response / ORR (patients with FGF-aberrant (FGFR1- or FGF3/4/19-amplified) breast cancer): 50%
median PFS (patients with FGF-aberrant breast cancer): 40.4 weeks
median PFS (patients with angiogenesis-sensitive disease): 25 weeks
